Results as given in PubChem BioAssay AID1949 (Southern Research Institute, 2009).
Converted amounts (≈) assume the structure as drawn. Records with an inconclusive call do not appear. The source made the active and inactive calls. How the calls were made is not given here.

System: M. tuberculosis H37Rv growth inhibition
Assay: Mycobacterium tuberculosis H37Rv growth inhibition, cell based, confirmatory dose response (AID 1949);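 further: bacteria grown 7 days with compound before Alamar blue readout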

Structure (SMILES)	IC50
CC(C)(C)NC(=O)c1cc2cc(Cl)cc(Cl)c2oc1=O	2.54 µg/mL (≈ 8.08 µM)
O=S1(=O)C=C(Sc2nnc(-c3ccccc3)o2)c2ccccc21	0.31 µg/mL (≈ 0.905 µM)
CCOC(=O)CSc1nnc2c3sc4nc(N5CCOCC5)c5c(c4c3ncn12)CC(C)(C)OC5	1.33 µg/mL (≈ 2.58 µM)
O=C(Nc1nccs1)c1cc(Cl)cc(Cl)c1	10.2 µg/mL (≈ 37.2 µM)
CCOC(=O)c1ccc(NC(=O)c2ccc(C)s2)cc1	2.22 µg/mL (≈ 7.67 µM)
Clc1ccc(OCCn2ccnc2)c2ccccc12	3.99 µg/mL (≈ 14.6 µM)
Cc1ccc([N+](=O)[O-])cc1NC(=O)Nc1cccc(Cl)c1	0.21 µg/mL (≈ 0.687 µM)
CC1=Nc2ccccc2N=C(N)C1c1ccc(Cl)cc1 (stereo not given)	15 µg/mL (≈ 52.8 µM)
CC(C(=O)Oc1cccc2cccnc12)N1C(=O)c2ccccc2C1=O (stereo not given)	4.4 µg/mL (≈ 12.7 µM)
CC1CCN(c2cc(/C=C(\C#N)c3nn(-c4ccccc4)c(N)c3C#N)c3ccccc3n2)CC1	> 50 µg/mL (inactive)
CC(NC(=O)c1ccc([N+](=O)[O-])o1)C12CC3CC(CC(C3)C1)C2 (stereo not given)	4.46 µg/mL (≈ 14 µM)
O=C(NCCC1=CCCCC1)Nc1ccc([N+](=O)[O-])cc1	11.6 µg/mL (≈ 40 µM)
O=C(Nc1ccc([N+](=O)[O-])cc1)c1cc(Br)ccc1O	17.9 µg/mL (≈ 53.2 µM)
CC1=CC(C)(C)N2C(=O)C(=O)c3cc(OC(=O)c4ccccc4)cc1c32	> 50 µg/mL (inactive)
CCOC(=O)c1cccc(NC(=O)C(Cl)Cl)c1	3.07 µg/mL (≈ 11.1 µM)
O=C(Oc1c(Cl)cc(Cl)c2cccnc12)c1cc(S(=O)(=O)N2CCCCC2)ccc1Cl	0.48 µg/mL (≈ 0.96 µM)
CCCCc1ccc(N/C(N)=N\c2nc(C)cc(C)n2)cc1	23.3 µg/mL (≈ 78.2 µM)
Cc1cc(OCC(=O)NC2C3CC4CC(C3)CC2C4)cc(C)c1Br (stereo not given)	1.45 µg/mL (≈ 3.7 µM)
Cc1cc(NC(=O)c2ccc([N+](=O)[O-])o2)c(C)cc1I	0.46 µg/mL (≈ 1.19 µM)
Cc1cc2ncn(Cc3ccccc3C)c2cc1C	11.1 µg/mL (≈ 44.4 µM)
CCOC(=O)CSc1n[nH]c(-c2ccc(Cl)cc2)n1	2.99 µg/mL (≈ 10 µM)
Cc1ccc(OC(F)F)c(NC(=O)Nc2ccc([N+](=O)[O-])cc2)c1	22.4 µg/mL (≈ 66.5 µM)

Structure (SMILES)	IC50
CCOC(=O)N1CCN(CC(O)COc2ccc(C3CCCCC3)cc2)CC1 (stereo not given)	3.69 µg/mL (≈ 9.45 µM)
O=S(=O)(Nc1cccc2cccnc12)c1ccc(Br)cc1	0.4 µg/mL (≈ 1.1 µM)
Cc1ccc(OCC(=O)c2ccc(C)cc2)cc1	50 µg/mL (≈ 208 µM)
COc1cc(Br)cc2cc(C(=O)Nc3ccccc3O)c(=O)oc12	> 50 µg/mL (inactive)
N#Cc1cc(Oc2ccc(OCc3ccccc3)cc2)c([N+](=O)[O-])cc1C#N	< 0.1 µg/mL
CC(C)(C)n1cnc2cc(NC(=O)c3ccc(Cl)cc3)ccc21	0.99 µg/mL (≈ 3.02 µM)
Cc1ccc(C(C)C)c(OCCNCc2ccccc2)c1	> 50 µg/mL (inactive)
CCOC(=O)COc1ccc(-c2ccc(C)cc2)cc1	0.33 µg/mL (≈ 1.22 µM)
CN(C)c1ccc(CNC23CC4CC(CC(C4)C2)C3)cc1	1.43 µg/mL (≈ 5.03 µM)
CCOC(=O)c1ccc(NC(=O)CSc2nnc(-c3ccc(OC)cc3)o2)cc1	0.17 µg/mL (≈ 0.411 µM)
O=C1C(=O)N(Cc2ccccc2Cl)c2ccc(Cl)cc21	9.36 µg/mL (≈ 30.6 µM)
O=C(C#Cc1ccccc1)c1ccc([N+](=O)[O-])cc1	> 50 µg/mL (inactive)
N=c1c2c(-c3ccccc3)c(-c3ccccc3)n(Cc3ccco3)c2ncn1Cc1ccco1	3.09 µg/mL (≈ 6.92 µM)
O=C1c2ccccc2C(=O)c2c1nc1n2CCCC1	> 50 µg/mL (inactive)
CCc1nc2ccccc2n1CC(O)COc1ccc(Br)cc1 (stereo not given)	4.11 µg/mL (≈ 11 µM)
CCC(C(=O)Nc1ccc(CC(=O)OC)cc1)c1ccccc1 (stereo not given)	0.69 µg/mL (≈ 2.22 µM)
CCOC(=O)c1ccc(NC(=S)NC(NC(=O)c2ccc(Br)cc2)C(Cl)(Cl)Cl)cc1 (stereo not given)	6.15 µg/mL (≈ 11.1 µM)
CCCC(=O)N1CCN(c2ccc(NC(=O)c3ccc(-c4ccc(Cl)cc4)o3)cc2Cl)CC1	1.4 µg/mL (≈ 2.88 µM)
O=C(CSc1ccccc1)c1ccc([N+](=O)[O-])cc1	9.78 µg/mL (≈ 35.8 µM)
CCCCc1ccc(NC(=S)NC(=O)c2ccc(OCC)c(Cl)c2)cc1	0.34 µg/mL (≈ 0.87 µM)
COc1ccc(/C=C/c2nc3ccccc3c(=O)o2)cc1	27.6 µg/mL (≈ 99 µM)
Cc1cccc(C(=O)Nc2nc3ccccc3[nH]2)c1	0.74 µg/mL (≈ 2.94 µM)

Structure (SMILES)	IC50
O=C(Nc1ccc([N+](=O)[O-])cc1)c1nc[nH]c1C(=O)NCc1ccccc1	7.92 µg/mL (≈ 21.7 µM)
O=C(Oc1ccc(C2CCCCC2)cc1)c1cccs1	13.3 µg/mL (≈ 46.4 µM)
O=c1c2ccccc2nc(/C=C/c2ccc([N+](=O)[O-])o2)n1CCCO	< 0.1 µg/mL
Oc1ccccc1-c1n[nH]c(/C=C/c2ccccc2Cl)n1	6.45 µg/mL (≈ 21.7 µM)
CCCn1nnnc1NC(=O)c1cccs1	1.67 µg/mL (≈ 7.04 µM)
CCOc1ccc(OCC(=O)Nc2cc(C)cc(C)c2)cc1	1.51 µg/mL (≈ 5.04 µM)
CCN(CC)CCC(=O)c1ccc(C(C)C)cc1	47.6 µg/mL (≈ 193 µM)
CC1CCN(CCNC(=S)Nc2ccc(F)cc2)CC1	1.54 µg/mL (≈ 5.21 µM)
COC(=O)COc1ccc2c(-c3ccc(OC)cc3)cc(=O)oc2c1	0.86 µg/mL (≈ 2.53 µM)
CCOC(=O)/C=C/C(=O)Nc1nc(-c2ccccc2)cs1	0.53 µg/mL (≈ 1.75 µM)
O=C(CC12CC3CC(CC(C3)C1)C2)NC(=S)Nc1cccc(Br)c1	> 50 µg/mL (inactive)
O=c1c2ccccc2[nH]c(=S)n1CCCN1CCN(c2cccc(Cl)c2)CC1	2.46 µg/mL (≈ 5.93 µM)
O=C(Cc1ccc(Cl)cc1)Oc1cccc2cccnc12	> 50 µg/mL (inactive)
Cc1cccc(NC(=S)NC(=O)CC23CC4CC(CC(C4)C2)C3)c1	2.89 µg/mL (≈ 8.44 µM)
O=C(Nc1ccccc1Cl)c1cc([N+](=O)[O-])ccc1O	7.53 µg/mL (≈ 25.7 µM)
CC1CCc2sc3ncnc(NCCc4ccccc4)c3c2C1 (stereo not given)	1.85 µg/mL (≈ 5.72 µM)
COc1ccc(-c2cc(C(=O)Nc3ccc(C(=O)N4CCOCC4)cc3)c3cc(C)ccc3n2)cc1	> 50 µg/mL (inactive)
COc1cccc2c1OC(c1ccccc1)C([N+](=O)[O-])=C2 (stereo not given)	0.7 µg/mL (≈ 2.47 µM)
O=C(CCNc1cccc(Cl)c1)c1ccco1	3.68 µg/mL (≈ 14.7 µM)
COc1ccc(NC(=O)C(Cc2c[nH]c3ccccc23)NC(C)=O)cc1 (stereo not given)	3.08 µg/mL (≈ 8.76 µM)
O=C(CSc1nnc(SCc2cccc3ccccc23)s1)Nc1ccccc1F	1.45 µg/mL (≈ 3.28 µM)
Cc1ccccc1N1C(=O)NC(=O)/C(=C\c2ccc([N+](=O)[O-])s2)C1=O	6.22 µg/mL (≈ 17.4 µM)

Structure (SMILES)	IC50
O=[N+]([O-])c1ccc(-c2[nH]c(-c3cccs3)nc2-c2ccccc2)cc1	2.86 µg/mL (≈ 8.23 µM)
O=C(Nc1ccccc1)Nc1ccc(S(=O)(=O)Nc2cccc(C(F)(F)F)c2)cc1	2.28 µg/mL (≈ 5.24 µM)
COC(=O)c1ccc(OC(=O)c2ccc(C)c([N+](=O)[O-])c2)cc1	> 50 µg/mL (inactive)
CSc1cccc(NC(=O)CSc2ccc(F)cc2)c1	2.86 µg/mL (≈ 9.3 µM)
COc1ccc(C23CC4CC(CC(C4)C2)C3)cc1C(=O)NCCN(C)C	10.8 µg/mL (≈ 30.3 µM)
CCC1CCCCN1C(=S)NC(=O)c1ccc(F)cc1 (stereo not given)	0.73 µg/mL (≈ 2.48 µM)
O=C(Nc1nc2c(s1)CCCC2)c1ccc(Br)s1	0.62 µg/mL (≈ 1.81 µM)
CC1(C)Oc2ccc3ccc(=O)oc3c2C(C=O)=C1Cl	1.03 µg/mL (≈ 3.54 µM)
CCOC(=O)c1c(NC(=O)COc2ccccc2C)sc(C(=O)N2CCCC2)c1C	> 50 µg/mL (inactive)
COC(=O)CSc1nnc(-c2ccc(C)cc2)o1	0.15 µg/mL (≈ 0.568 µM)
COc1ccc(Cl)cc1/C=C/[N+](=O)[O-]	5.64 µg/mL (≈ 26.4 µM)
O=C(c1ccccc1)c1ccc(OCC(O)Cn2cnc3ccccc32)cc1 (stereo not given)	1.51 µg/mL (≈ 4.05 µM)
COc1ccccc1-n1c(=O)oc2ccc(Cl)cc2c1=O	4.95 µg/mL (≈ 16.3 µM)
O=[N+]([O-])c1ncn(Cc2ccc(Cl)cc2)n1	7.25 µg/mL (≈ 30.4 µM)
Cc1cc(Oc2nc([N+](=O)[O-])nn2C)ccc1Cl	5.88 µg/mL (≈ 21.9 µM)
Cc1ccc(-c2nc(NC(=O)CO)cs2)cc1	0.36 µg/mL (≈ 1.45 µM)
CCc1cccc(OCC(=O)Nc2ccc([N+](=O)[O-])cc2)c1	11.7 µg/mL (≈ 39.1 µM)
O=C(CCNc1ccc(Cl)c(C(F)(F)F)c1)c1cccs1	3.17 µg/mL (≈ 9.5 µM)
CC(=O)OCC#CCSc1nnc(-c2ccc(Br)cc2)o1	< 0.1 µg/mL
